This is an account of results in patent publication US5972598A, “Methods for preventing multidrug resistance in cancer cells” (priority 1995, dated 1999).

“Also recorded” adds a separate entry of the source. Like-named read-outs stand apart in the source and are kept apart here.

The subject of data set [1] is tumor. As to conditions: cited from earlier work; for antitumor activity in vivo: literature.
For data set [2], the system named is MDR1. The data set is classed as cell-based, human. The protocol: The times of drug exposure are indicated.
(§1) (Commercially-available kits (for example, from GIBCO/BRL, Gaithersburg, Md.) can be advantageously modified for making cDNA using random hexamers.) PCR is then performed using the following primers: […]
Next, it was tested whether drug-induced MDR1 expression was maintained after the cytotoxic treatment. […] At different time points, MDR1 expression in the surviving cells was analyzed by dye efflux and immunofluorescence labeling with UIC2 (FIG. 3c) or by cDNA-PCR (FIG. 4e).

Another data set concerns MRP. Description: Inhibition of MRP expression in H-9 cells. The data set is classed as cell-based, human. Further details: Inhibition of MRP Expression: key to the marks not given beside the values. The protocol:
PCR was performed using the following primers: […]
(where β2 M represents β2 microglobulin). PCR was performed for β2 M experiments under a regime consisting of 1 cycle comprising denaturation at 94° C. for 3 minutes, primer annealing at 60° C. for 30 seconds, and primer extension at 72° C. for 1 minute, followed by 19 cycles comprising denaturation at 94° C. for 30 seconds, primer annealing at 60° C. for 30 seconds, and primer extension at 72° C. for 1 minute, followed by a final cycle comprising denaturation at 94° C. for 30 seconds, primer annealing at 60° C. for 30 seconds, and primer extension at 72° C. for 5 minutes.

Data set [3] deals with MDR1. Description: Inhibition of cytotoxic drug (Ara-C) induced MDR1 expression by protein kinase inhibitors. The data set is classed as cell-based, human. The protocol: FIG. 5. Effect of protein kinase inhibitors on MDR1 mRNA induction by cytotoxic drugs in H9 cells. […]
as §1
(where β2 M represents β2 microglobulin). PCR was performed for β2 M experiments under a regime consisting of 1 cycle comprising denaturation at 94° C. for 3 minutes, primer annealing at 60° C. for 30 seconds, and primer extension at 72° C. for 1 minute, followed by 19 cycles comprising denaturation at 94° C. for 30 seconds, primer annealing at 60° C. for 30 seconds, and primer extension at 72° C. for 1 minute, followed by a final cycle comprising denaturation at 94° C. for 30 seconds, primer annealing at 60° C. for 30 seconds, and primer extension at 72° C. for 5 minutes. MDR1 cDNA sequences were amplified using the identical protocol as for β2 M, but extending the amplification from 19 cycles to 25 cycles. In addition, the cDNA-PCR amplification protocol contained the following modifications: (i) Taq DNA polymerase was added to the PCR mixtures after initial heating of the samples to 94° C. (ii) The yield of the β2 -microglobulin-specific band, obtained after 22-28 cycles of PCR, was used as the primary criterion for equalizing the starting amounts of the cDNA templates in different preparations, in order to account for differential RNA degradation in cells subjected to different types of treatment. […] PCR products were detected by autoradiography.
Cells were plated in 6-well Falcon tissue culture plates at 3,300 cells per well, and incubated in the appropriate concentrations of drugs. Each of the protein kinase inhibitors to be tested were added at their appropriate final concentrations 45 minutes prior to MDR1 induction by the addition of Ara-C or TPA, with the exception of herbimycin A, which was added 12 hours prior to Ara-C or TPA, and tyrphostins A25 and B46, which were each added 16 hours prior to MDR1 induction by the addition of Ara-C or TPA. Cells were incubated overnight (TPA) or for 10 hours (Ara-C) at 37° C. under an atmosphere of 5% CO2 after the addition of the MDR1 inducing agents before harvesting for cDNA-PCR analysis.
In addition to these conditions, the analysis of certain drugs imposed added requirements. For experiments using calphostin C, cells were incubated under direct white light illumination. For experiments using D,L-threo-sphingosine, the cell culture medium was pre-treated with the appropriate concentration of the drug for one hour at 37° C. with continuous gentle mixing. After this pre-treatment, cells were resuspended in media supplemented with drug and incubated for 45 minutes as described above.
cDNA-PCR analyses on each culture treated with drugs, or in control cultures incubated in the absence or presence of Ara-C or TPA alone, were performed as described in Section 6.1.3 above.
To further evaluate the capacity of protein kinase inhibitors to suppress MDR1 induction by cytotoxic drugs and PKC agonists, H-9 human T cell leukemia cells were used in cDNA-PCR assays to examine induced MDR1 mRNA expression levels in the presence of such protein kinase inhibitors.

Another data set concerns the target P-glycoprotein (Homo sapiens, UniProt P08183). The data set is described as follows: Rh123 accumulation assay of P-glycoprotein activity in human PBL. The procedure:
KG1 cell line was maintained in Iscove's modified Dulbecco medium with 20% fetal calf serum (FCS) and 2 mM L-glutamine, 100 units/ml penicillin and 100 μg/ml streptomycin (GIBCO Laboratories, Grand Island, N.Y.).
A functional assay was used to detect changes in P-glycoprotein activity in human PBL treated with different agents that induce lymphoid differentiation or activation, based on flow cytometric analysis of cellular accumulation of Rh123, which is a P-glycoprotein-transported fluorescent mitochondrial dye. In this assay, cells expressing little or no P-glycoprotein stain brightly with Rh123, whereas cells with higher levels of P-glycoprotein activity appear Rh123-dull. […] Since the best-known cellular effect of TPA is the stimulation of PKC, it was also tested whether DOG, a cell-permeable diacylglycerol and a physiological stimulant of PKC, would have an effect on Rh123 accumulation in PBL.

The test system of the next data set is PKC. As to conditions: literature; cited from earlier work.
The test system of data set [4] is tumor. The settings on record: nude mice; Meyer et al., 1989; cited from earlier work.

Sequence of P-glycoprotein (P08183 whole entry): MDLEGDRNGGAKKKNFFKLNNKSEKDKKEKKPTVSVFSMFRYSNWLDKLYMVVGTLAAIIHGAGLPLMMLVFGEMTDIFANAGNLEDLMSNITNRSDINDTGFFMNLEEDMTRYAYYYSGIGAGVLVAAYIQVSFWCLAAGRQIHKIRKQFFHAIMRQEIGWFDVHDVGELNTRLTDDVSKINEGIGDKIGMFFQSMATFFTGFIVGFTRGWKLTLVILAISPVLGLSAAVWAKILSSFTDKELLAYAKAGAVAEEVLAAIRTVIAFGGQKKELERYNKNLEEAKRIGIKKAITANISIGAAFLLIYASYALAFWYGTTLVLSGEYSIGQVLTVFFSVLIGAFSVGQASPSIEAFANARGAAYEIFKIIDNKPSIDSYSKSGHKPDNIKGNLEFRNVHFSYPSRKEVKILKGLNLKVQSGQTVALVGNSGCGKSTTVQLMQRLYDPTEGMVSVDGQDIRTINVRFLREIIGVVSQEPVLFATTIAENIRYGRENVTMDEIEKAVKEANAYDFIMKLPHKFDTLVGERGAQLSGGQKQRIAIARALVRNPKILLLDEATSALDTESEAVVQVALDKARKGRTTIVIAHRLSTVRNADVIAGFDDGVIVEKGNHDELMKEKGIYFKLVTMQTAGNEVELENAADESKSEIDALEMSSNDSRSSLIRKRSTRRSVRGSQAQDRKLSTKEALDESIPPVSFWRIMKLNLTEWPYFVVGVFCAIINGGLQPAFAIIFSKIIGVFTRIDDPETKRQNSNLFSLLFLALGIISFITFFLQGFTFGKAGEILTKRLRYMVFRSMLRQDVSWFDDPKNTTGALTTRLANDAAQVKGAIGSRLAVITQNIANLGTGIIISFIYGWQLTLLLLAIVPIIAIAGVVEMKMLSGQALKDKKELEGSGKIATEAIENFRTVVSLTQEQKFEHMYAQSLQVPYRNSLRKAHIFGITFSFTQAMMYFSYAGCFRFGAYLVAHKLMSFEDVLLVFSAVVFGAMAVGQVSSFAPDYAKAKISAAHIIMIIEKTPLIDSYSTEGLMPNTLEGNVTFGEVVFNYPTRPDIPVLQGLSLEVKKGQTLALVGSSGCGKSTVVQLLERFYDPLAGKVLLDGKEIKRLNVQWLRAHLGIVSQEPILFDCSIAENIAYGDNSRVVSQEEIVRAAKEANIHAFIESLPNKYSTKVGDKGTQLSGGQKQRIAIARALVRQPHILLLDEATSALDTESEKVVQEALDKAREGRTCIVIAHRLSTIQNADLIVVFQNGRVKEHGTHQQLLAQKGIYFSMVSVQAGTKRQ

Regarding `CN[C@@H]1C[C@H]2O[C@@](C)([C@@H]1OC)n1c3ccccc3c3c4c(c5c6ccccc6n2c5c31)C(=O)N[C@H]4O` [UCN-01], the “antitumor activity in vivo” value in the data set with tumor [1] is on record as “antitumor activity in vivo”.

For `N.N.[Cl][Pt][Cl]` [cisplatin], the “MDR1 mRNA induction” value in the data set on MDR1 [2] (K562 cells) is “induce MDR1 mRNA expression”. In addition, the “MDR1 induction, mRNA and protein levels” value with MDR1 [2] (human leukemia and solid-tumor derived cell lines, subpopulation of treated cells) was “MDR1 induction, both at the mRNA and at the protein levels, was observed”.

Consider `COc1cc([C@@H]2c3cc4c(cc3[C@@H](O[C@@H]3O[C@@H]5CO[C@@H](C)O[C@H]5[C@H](O)[C@H]3O)[C@H]3COC(=O)[C@H]23)OCO4)cc(OC)c1O` [etoposide], for which the “MDR1 induction, mRNA and protein levels” value in the data set on MDR1 [2] is “MDR1 induction, both at the mRNA and at the protein levels, was observed”.

For `CCN(CC)CCN1C(=O)c2c(c3c4cccc(Cl)c4n([C@@H]4O[C@H](CO)[C@@H](OC)[C@H](O)[C@H]4O)c3c3[nH]c4c(Cl)cccc4c23)C1=O` [BMY 27557, 8-N-(diethylaminoethyl) rebeccamycin], in the data set on tumor [1] (i.p., Schurig et al., 1990), the “optimal total dose, i.p., nine equal injections per day at 12 mg/kg/injection” value was 108 mg/kg and the “optimal total dose, i.p., single dose” value is listed as 64 mg/kg. The “antitumor activity in vivo” value in the data set on tumor [1] is “antitumor activity in vivo”.

Turning to `COc1ccc2c(c[n+](C)c3c4cc5c(cc4ccc23)OCO5)c1OC` [chelerythrine], in the data set on MRP (1-5 μM), the “Inhibition of MRP Expression” value was “++++” and the “inhibition of MRP expression” value is recorded as “strongly inhibited; also recorded: capable of inhibiting MRP expression”. The “prevention of MDR1 induction by chemotherapeutic drugs” value with MDR1 [3] (5 μM) is given as “prevent MDR1 induction”. Besides, the “inhibition of Ara-C induced MDR1 expression” value in the data set on MDR1 [3] (H-9 cells, 1 μM and 5 μM) is listed as “Progressive dose-dependent inhibition”.

With `CN(Cc1cnc2nc(N)nc(N)c2n1)c1ccc(C(=O)N[C@@H](CCC(=O)O)C(=O)O)cc1` [methotrexate], in the data set on MDR1 [2], the “MDR1 induction, mRNA and protein levels” value is “MDR1 induction, both at the mRNA and at the protein levels, was observed”; the “MDR1 mRNA expression” value was “MDR1 mRNA expression was induced”; the “maintenance of MDR1 expression after removal of the drug” value is listed as “least several weeks”.

For the compound `COC1C=CC=C(C)C(=O)NC2=CC(=O)C=C(C2=O)C(OC)C(C)CC(OC)C(OC)C(C)C=C(C)C1OC(N)=O` (stereo not shown) [herbimycin A], the “inhibition of Ara-C induced MDR1 expression” value with MDR1 [3] (0.35-3 μM) was “little or no capacity to inhibit Ara-C induced MDR1 expression; also recorded: ineffective at inhibiting MDR1 induction by Ara-C”; in the data set with MDR1 [3] (H9 cells, 25 μM Ara-C 10 h, 0.3-3 μM (12 h)), “-”.

Take `N#CC(=Cc1ccc(O)c(O)c1)C(=O)NCCCc1ccccc1` [tyrphostin B46]: the “inhibition of Ara-C induced MDR1 expression” value in the data set with MDR1 [3] (H-9 cells, 50-100 μM) was “strongly inhibit Ara-C induced MDR1 expression; also recorded: inhibit Ara-C induced MDR1 expression”.

Regarding IL-1α, the “effect on P-glycoprotein activity (Rh123 accumulation)” value with P-glycoprotein is recorded as “No apparent effects on P-glycoprotein”.

Take `COc1c(CC(C)OC(=O)Oc2ccc(O)cc2)c2c3c(CC(C)OC(=O)c4ccccc4)c(OC)c(=O)c4c(O)cc(OC)c(c5c(OC)cc(O)c(c1=O)c52)c43` (stereo not shown) [calphostin C]: the “prevention of MDR1 induction by chemotherapeutic drugs” value in the data set with MDR1 [3] (1 μM with white light illumination) is “prevent MDR1 induction”. Moreover, the “inhibition of Ara-C induced MDR1 expression” value in the data set with MDR1 [3] (H-9 cells, 0.1 μM with white light illumination) is recorded as “greatly reduced”; in the data set with MDR1 [3] (H-9 cells, 1 μM with white light illumination), “capable of inhibiting MDR1 expression”.

On to `O=c1[nH]cc(F)c(=O)[nH]1` [5-fluorouracil], for which the “MDR1 induction, mRNA and protein levels” value in the data set on MDR1 [2] is “MDR1 induction, both at the mRNA and at the protein levels, was observed”.

Take `O=CN/C=C/c1cc(O)ccc1O` [erbstatin]: the “inhibition of protein kinase C” value in the data set with PKC is on record as “protein kinase C inhibitors”. In addition, the “antitumor activity in vivo” value in the data set with tumor [1] is “antitumor activity in vivo”.

Consider `O=c1c(-c2ccc(O)cc2)coc2cc(O)cc(O)c12` [genistein], for which the “inhibition of Ara-C induced MDR1 expression” value with MDR1 [3] (150 μM) is “only weakly inhibited Ara-C induced MDR1 expression”; in the data set on MDR1 [3] (H9 cells, 25 μM Ara-C 10 h, 150 μM), “+”.

`CO[C@@H]1[C@H](N(C)C(=O)c2ccccc2)C[C@H]2O[C@]1(C)n1c3ccccc3c3c4c(c5c6ccccc6n2c5c31)C(=O)NC4` [CGP 41 251]: in the data set with tumor [4], the “anti-tumor effect at fraction of MTD” value is reported as 1/10 and the “maximum tolerated dose (MTD)” value was 250 mg/kg.

As to neomycin sulfate, in the data set with MRP (10 mM), the “Inhibition of MRP Expression” value is “++++” and the “inhibition of MRP expression” value is listed as “strongly inhibited; also recorded: capable of inhibiting MRP expression”. Also, in the data set on PKC, the “inhibition of protein kinase C” value was “protein kinase C inhibitors”. The “inhibition of Ara-C induced MDR1 expression” value with MDR1 [3] (H-9 cells, 10 mM) was “inhibit Ara-C induced MDR1 expression”.

As for `CNc1ccc2oc(C[C@H]3O[C@@]4(CC[C@H]3C)O[C@H]([C@H](C)C(=O)c3ccc[nH]3)[C@H](C)C[C@H]4C)nc2c1C(=O)O` [A23187], the “effect on P-glycoprotein activity (Rh123 accumulation)” value on P-glycoprotein (human PBL) was “No apparent effects on P-glycoprotein”.

In the case of `N#CC(C#N)=Cc1cc(O)c(O)c(O)c1` [tyrphostin A25], in the data set with MDR1 [3] (H-9 cells, 50-100 μM), the “inhibition of Ara-C induced MDR1 expression” value is reported as “strongly inhibit Ara-C induced MDR1 expression; also recorded: inhibit Ara-C induced MDR1 expression”.
